Biological target: T1, Voltage-gated inwardly rectifying potassium channel KCNH2 (Homo sapiens, UniProt Q12809)
Assay: Inhibition of K+ channel activity in mammalian cells expressing HERG Kv11.1
Type: cell-based
Settings: not given

T1 sequence (Q12809 whole entry): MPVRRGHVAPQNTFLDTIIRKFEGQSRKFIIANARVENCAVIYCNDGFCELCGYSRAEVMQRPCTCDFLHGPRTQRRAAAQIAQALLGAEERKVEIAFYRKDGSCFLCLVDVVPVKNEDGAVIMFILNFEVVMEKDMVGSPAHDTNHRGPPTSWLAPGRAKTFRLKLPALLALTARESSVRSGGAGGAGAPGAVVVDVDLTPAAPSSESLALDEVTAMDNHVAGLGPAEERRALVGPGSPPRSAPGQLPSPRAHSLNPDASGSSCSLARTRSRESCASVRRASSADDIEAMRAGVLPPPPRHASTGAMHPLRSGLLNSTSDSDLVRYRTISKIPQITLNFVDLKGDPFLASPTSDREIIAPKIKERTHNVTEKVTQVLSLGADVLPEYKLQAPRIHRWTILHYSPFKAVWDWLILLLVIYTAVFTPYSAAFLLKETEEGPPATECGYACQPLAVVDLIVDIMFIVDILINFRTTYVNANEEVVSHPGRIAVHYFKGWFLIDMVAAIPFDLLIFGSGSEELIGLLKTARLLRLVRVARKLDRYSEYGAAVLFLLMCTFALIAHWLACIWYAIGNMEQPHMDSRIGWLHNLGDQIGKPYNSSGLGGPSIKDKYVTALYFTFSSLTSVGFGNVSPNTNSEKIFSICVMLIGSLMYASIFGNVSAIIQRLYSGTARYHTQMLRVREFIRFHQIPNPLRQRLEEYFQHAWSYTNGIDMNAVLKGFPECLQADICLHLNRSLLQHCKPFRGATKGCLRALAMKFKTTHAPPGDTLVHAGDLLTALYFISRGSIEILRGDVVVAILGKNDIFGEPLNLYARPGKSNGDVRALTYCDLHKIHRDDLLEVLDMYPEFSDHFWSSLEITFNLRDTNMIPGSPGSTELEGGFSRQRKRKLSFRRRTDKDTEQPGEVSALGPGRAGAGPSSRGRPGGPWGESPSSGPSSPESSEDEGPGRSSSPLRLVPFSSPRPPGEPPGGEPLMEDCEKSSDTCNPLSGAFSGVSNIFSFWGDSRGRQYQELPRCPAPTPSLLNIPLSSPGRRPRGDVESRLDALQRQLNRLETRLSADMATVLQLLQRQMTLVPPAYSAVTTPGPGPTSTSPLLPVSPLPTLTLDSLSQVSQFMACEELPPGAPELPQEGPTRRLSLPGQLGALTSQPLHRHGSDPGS

Row | SMILES | IC50 [µM]
1 | CC[C@H]1OC(=O)[C@H](C)[C@@H](O[C@H]2C[C@@](C)(OC)[C@@H](O)[C@H](C)O2)[C@H](C)[C@@H](O[C@@H]2O[C@H](C)C[C@H](N(C)C)[C@H]2O)[C@](C)(OC)C[C@@H](C)C(=O)[C@H](C)[C@@H](O)[C@]1(C)O [CLARITHROMYCIN] | 33.1

Biological target: T1, Voltage-gated inwardly rectifying potassium channel KCNH2
Assay: Inhibition of human Potassium channel HERG expressed in mammalian cells
Settings: not given

Row | SMILES | IC50 [µM]
2 | O=C(O[C@H]1C[C@@H]2C[C@@H]3C[C@@H](C1)N2CC3=O)C1CNc2ccccc21 (some centres undefined) | 5.89
3 | COc1ccc(C2CCN(CCC3CCOc4ccccc43)CC2)cc1OC (centres undefined) | 0.2
4 | CC[C@H]1OC(=O)[C@H](C)[C@@H](O[C@H]2C[C@@](C)(OC)[C@@H](O)[C@H](C)O2)[C@H](C)[C@@H](O[C@@H]2O[C@H](C)C[C@H](N(C)C)[C@H]2O)[C@](C)(OC)C[C@@H](C)C(=O)[C@H](C)[C@@H](O)[C@]1(C)O [CLARITHROMYCIN] | 58.9
5 | Oc1ccc(CCN2CCC(Nc3nc4ccccc4n3Cc3ccc(F)cc3)CC2)cc1 [DESMETHEYLASTEMIZOLE] | 0.001
6 | COc1c(N2CCNC(C)C2)c(F)cc2c(=O)c(C(=O)O)cn(C3CC3)c12 (centres undefined) [GATIFLOXACIN] | 129
7 | CN(c1nccc(=O)[nH]1)C1CCN(c2nc3ccccc3n2Cc2ccc(F)cc2)CC1 [MIZOLASTINE] | 0.437
8 | CN1CCC[C@H]1c1cccnc1 [NICOTINE] | 245
9 | CCOC(=O)C1=C(C)NC(C)=C(C(=O)OC)C1c1cccc([N+](=O)[O-])c1 (centres undefined) [NITRENDIPINE] | 10
10 | Cc1cc2c(s1)Nc1ccccc1N=C2N1CCN(C)CC1 [OLANZAPINE] | 0.182
11 | C[C@@H]1CN(c2c(F)c(N)c3c(=O)c(C(=O)O)cn(C4CC4)c3c2F)C[C@H](C)N1 [SPARFLOXACIN] | 18.2
12 | COc1ccc(C2CCN(CC[C@H]3CCOc4ccccc43)CC2)cc1OC [TERIKALANT] | 0.251
13 | COc1ccc(C(=O)N2CCN(c3ccc4c(c3)CCC(=O)N4)CC2)cc1OC [VESNARINONE] | 1.1

Same assay, conditions: human

Row | SMILES | pIC50
14 | Cc1c(F)c(N2CCNC(C)C2)cc2c1c(=O)c(C(=O)O)cn2C1CC1 (centres undefined) [GREPAFLOXACIN] | […]

From ChEMBL document CHEMBL1136167, “Prediction of hERG potassium channel affinity by traditional and hologram qSAR methods” (Bioorg Med Chem Lett, 2003)
